The values that follow come from patent US20230089073A1 (Carmot Therapeutics, Inc., priority 2021, published 2023).

A value given as a limit tells only on which side of the number the result lay.

For this assay, the target named is T1, human GLP-1 receptor (Homo sapiens, UniProt P43220).
T1 construct: expressed in transfected cells
T1 sequence (P43220 24-463): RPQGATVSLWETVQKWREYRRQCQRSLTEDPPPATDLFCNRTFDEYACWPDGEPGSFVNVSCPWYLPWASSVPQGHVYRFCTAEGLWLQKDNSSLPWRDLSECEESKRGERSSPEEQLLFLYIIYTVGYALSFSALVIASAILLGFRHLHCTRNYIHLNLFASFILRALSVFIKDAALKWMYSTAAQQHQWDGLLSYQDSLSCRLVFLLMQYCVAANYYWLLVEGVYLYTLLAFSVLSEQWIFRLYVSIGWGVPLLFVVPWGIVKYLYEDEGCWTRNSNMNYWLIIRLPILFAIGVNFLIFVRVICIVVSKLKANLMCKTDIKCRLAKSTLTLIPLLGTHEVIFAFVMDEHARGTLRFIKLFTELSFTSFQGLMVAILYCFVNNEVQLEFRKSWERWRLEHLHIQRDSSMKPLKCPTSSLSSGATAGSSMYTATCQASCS
The assay can be described thus: GLP-1R cAMP Assay. In kind it is cell-based. The settings on record: cAMP accumulation in CHO cells stably overexpressing the human GLP-1 receptor; 30 min treatment; HitHunter cAMP kit; read-out: EC50. The protocol: cAMP accumulation was measured in Chinese hamster ovary (CHO) cells stably overexpressing the human GLP-1 receptor using the HitHunter cAMP Assay for Small Molecules Kit (Eurofins). Briefly, cells were grown in Ham's F12 Nutrient Mix with 10% FBS, and lifted with Cell Dissociation Buffer, Enzyme free, PBS based (ThermoFisher). […] The anti-cAMP antibody reagent was then added to cells at a 1:2 ratio and 5 μL of mixture was seeded in 384-well small volume white assay plates, at 10,000 cells/well. Cells were then treated with 50 nL compound using an ECHO 550 acoustic dispenser (Labcyte) in a 20-point dose response format in triplicate for 30 min. Cells were then lysed, and detection reagents added according to the manufacturer's protocol. After overnight incubation, luminescence was measured using a Perkin Elmer Envision plate reader. Dose response curves were analyzed using GraphPad Prism 9.0.
For orientation: Changes in cAMP serve as a functional read-out for many G protein-coupled receptors.
The term EC50 denotes the concentration giving half of the maximal effect. As to `Cc1cccc(Oc2cccc(C(=O)N3CCN(Cc4nc5ccc(C(=O)O)cc5n4C[C@@H]4CCO4)CC3)c2)c1` [Compound 17, 2-({4-[3-(3-methylphenoxy)benzoyl]piperazin-1-yl}methyl)-1-{[(2S)-oxetan-2-yl]methyl}-1H-1,3-benzodiazole-6-carboxylic acid], the 50% effective concentration (EC50) was above 500 nM.

With `Cc1ccc(Oc2cccc(C(=O)N3CCN(Cc4nc5ccc(C(=O)O)cc5n4C[C@@H]4CCO4)CC3)c2)c(C)c1` [Compound 18, 2-({4-[3-(2,4-dimethylphenoxy)benzoyl]piperazin-1-yl}methyl)-1-{[(2S)-oxetan-2-yl]methyl}-1H-1,3-benzodiazole-6-carboxylic acid], the EC50 fell in the range of 50 to 500 nM.

`Cc1cccc(Oc2ccc(C(=O)N3CCN(Cc4nc5ccc(C(=O)O)cc5n4C[C@@H]4CCO4)CC3)cc2)c1` [Compound 21, 2-({4-[4-(3-methylphenoxy)benzoyl]piperazin-1-yl}methyl)-1-{[(2S)-oxetan-2-yl]methyl}-1H-1,3-benzodiazole-6-carboxylic acid]: the EC50 was above 500 nM.

Regarding `Cc1ccc(Oc2ccc(C(=O)N3CCN(Cc4nc5ccc(C(=O)O)cc5n4C[C@@H]4CCO4)CC3)cc2)cc1` [Compound 22, 2-({4-[4-(4-methylphenoxy)benzoyl]piperazin-1-yl}methyl)-1-{[(2S)-oxetan-2-yl]methyl}-1H-1,3-benzodiazole-6-carboxylic acid], the concentration giving a half-maximal response (EC50) is above 500 nM.

Take `COC(=O)c1ccc2nc(CN3CCN(C(=O)c4cccc(Oc5ccc(C)cc5Cl)c4)CC3)n(C[C@@H]3CCO3)c2c1` [Compound 23, methyl 2-({4-[3-(2-chloro-4-methylphenoxy)benzoyl]piperazin-1-yl}methyl)-1-{[(2S)-oxetan-2-yl]methyl}-1H-1,3-benzodiazole-6-carboxylate]: the concentration giving a half-maximal response (EC50) was above 500 nM.

Take `COC(=O)c1ccc2nc(CN3CCN(C(=O)c4ccc(COc5cccc(Cl)c5C)o4)CC3)n(C[C@@H]3CCO3)c2c1` [Compound 24, methyl 2-[(4-{5-[(3-chloro-2-methylphenoxy)methyl]furan-2-carbonyl}piperazin-1-yl)methyl]-1-{[(2S)-oxetan-2-yl]methyl}-1H-1,3-benzodiazole-6-carboxylate]: the EC50 was above 500 nM.

`Cc1ccc(Nc2cccc(C(=O)N3CCN(Cc4nc5ccc(C(=O)O)cc5n4C[C@@H]4CCO4)CC3)c2)cc1` [Compound 25, 2-[(4-{3-[(4-methylphenyl)amino]benzoyl}piperazin-1-yl)methyl]-1-{[(2S)-oxetan-2-yl]methyl}-1H-1,3-benzodiazole-6-carboxylic acid]: the EC50 was above 500 nM.

Regarding `O=C(O)c1ccc2nc(CN3CCN(C(=O)c4ccc(COc5ccc(Cl)cc5Cl)o4)CC3)n(C[C@@H]3CCO3)c2c1` [Compound 26, 2-[(4-{5-[(2,4-dichlorophenoxy)methyl]furan-2-carbonyl}piperazin-1-yl)methyl]-1-{[(2S)-oxetan-2-yl]methyl}-1H-1,3-benzodiazole-6-carboxylic acid], the EC50 is 50 to 500 nM.

Turning to `O=C(O)c1ccc2nc(CN3CCN(Cc4cc5ccc(-c6ccc(Cl)cc6F)cc5o4)CC3)n(C[C@@H]3CCO3)c2c1` [Compound 28, 2-[(4-{[6-(4-chloro-2-fluorophenyl)-1-benzofuran-2-yl]methyl}piperazin-1-yl)methyl]-1-{[(2S)-oxetan-2-yl]methyl}-1H-1,3-benzodiazole-6-carboxylic acid], the concentration giving a half-maximal response (EC50) was above 500 nM.

With `Cc1ccc(N(C)c2cccc(C(=O)N3CCN(Cc4nc5ccc(C(=O)O)cc5n4C[C@@H]4CCO4)CC3)c2)cc1` [Compound 29, 2-[(4-{3-[methyl(4-methylphenyl)amino]benzoyl}piperazin-1-yl)methyl]-1-{[(2S)-oxetan-2-yl]methyl}-1H-1,3-benzodiazole-6-carboxylic acid], the concentration for a half-maximal effect (EC50) lay within 50 to 500 nM.

Take `O=C(O)c1ccc2nc(CN3CCN(C(=O)c4ccc(COc5ccccc5)o4)CC3)n(C[C@@H]3CCO3)c2c1` [Compound 30, 1-{[(2S)-oxetan-2-yl]methyl}-2-({4-[5-(phenoxymethyl)furan-2-carbonyl]piperazin-1-yl}methyl)-1H-1,3-benzodiazole-6-carboxylic acid]: the 50% effective concentration (EC50) was above 500 nM.

`O=C(O)c1ccc2nc(CN3CCN(C(=O)c4ccc(COc5ccc(Cl)cc5)o4)CC3)n(C[C@@H]3CCO3)c2c1` [Compound 31, 2-[(4-{5-[(4-chlorophenoxy)methyl]furan-2-carbonyl}piperazin-1-yl)methyl]-1-{[(2S)-oxetan-2-yl]methyl}-1H-1,3-benzodiazole-6-carboxylic acid]: the EC50 was above 500 nM.

Consider `Cc1ccc(Cc2cccc(C(=O)N3CCN(Cc4nc5ccc(C(=O)O)cc5n4C[C@@H]4CCO4)CC3)c2)cc1` [Compound 33, 2-[(4-{3-[(4-methylphenyl)methyl]benzoyl}piperazin-1-yl)methyl]-1-{[(2S)-oxetan-2-yl]methyl}-1H-1,3-benzodiazole-6-carboxylic acid], for which the concentration giving a half-maximal response (EC50) was above 500 nM.

Regarding `Cc1ccc(Oc2cccc(CN3CCN(Cc4nc5ccc(C(=O)O)cc5n4C[C@@H]4CCO4)CC3)c2)cc1` [Compound 35, 2-[(4-{[3-(4-methylphenoxy)phenyl]methyl}piperazin-1-yl)methyl]-1-{[(2S)-oxetan-2-yl]methyl}-1H-1,3-benzodiazole-6-carboxylic acid], the half-maximal effective concentration (EC50) is above 500 nM.

For the compound `N#Cc1ccc(OCc2ccc(C(=O)N3CCN(Cc4nc5ccc(C(=O)O)cc5n4C[C@@H]4CCO4)CC3)o2)c(F)c1` [Compound 37, 2-[(4-{5-[(4-cyano-2-fluorophenoxy)methyl]furan-2-carbonyl}piperazin-1-yl)methyl]-1-{[(2S)-oxetan-2-yl]methyl}-1H-1,3-benzodiazole-6-carboxylic acid], the EC50 was above 500 nM.

In the case of `Cc1ccc(OCc2ccc(C(=O)N3CCN(Cc4nc5ccc(C(=O)O)cc5n4C[C@@H]4CCO4)CC3)o2)c(Cl)c1` [Compound 38, 2-[(4-{5-[(2-chloro-4-methylphenoxy)methyl]furan-2-carbonyl}piperazin-1-yl)methyl]-1-{[(2S)-oxetan-2-yl]methyl}-1H-1,3-benzodiazole-6-carboxylic acid], the EC50 is above 500 nM.

As to `O=C(O)c1ccc2nc(CN3CCN(C(=O)c4ccc(COc5ccccc5Cl)o4)CC3)n(C[C@@H]3CCO3)c2c1` [Compound 39, 2-[(4-{5-[(2-chlorophenoxy)methyl]furan-2-carbonyl}piperazin-1-yl)methyl]-1-{[(2S)-oxetan-2-yl]methyl}-1H-1,3-benzodiazole-6-carboxylic acid], the half-maximal effective concentration (EC50) was above 500 nM.

As for `O=C(O)c1ccc2nc(CN3CCN(C(=O)c4ccc(COc5cccc(Cl)c5)o4)CC3)n(C[C@@H]3CCO3)c2c1` [Compound 40, 2-[(4-{5-[(3-chlorophenoxy)methyl]furan-2-carbonyl}piperazin-1-yl)methyl]-1-{[(2S)-oxetan-2-yl]methyl}-1H-1,3-benzodiazole-6-carboxylic acid], the EC50 was above 500 nM.

As for `Cc1ccc(OCc2ccc(C(=O)N3CCN(Cc4nc5ccc(C(=O)O)cc5n4C[C@@H]4CCO4)CC3)o2)c(C)c1` [Compound 41, 2-[(4-{5-[(2,4-dimethylphenoxy)methyl]furan-2-carbonyl}piperazin-1-yl)methyl]-1-{[(2S)-oxetan-2-yl]methyl}-1H-1,3-benzodiazole-6-carboxylic acid], the EC50 is 50 to 500 nM.

As for `Cc1ccc(OCc2ccc(C(=O)N3CCN(Cc4nc5ccc(C(=O)O)cc5n4C[C@@H]4CCO4)CC3)o2)cc1` [Compound 42, 2-[(4-{5-[(4-methylphenoxy)methyl]furan-2-carbonyl}piperazin-1-yl)methyl]-1-{[(2S)-oxetan-2-yl]methyl}-1H-1,3-benzodiazole-6-carboxylic acid], the EC50 was above 500 nM.

In the case of `Cc1ccccc1OCc1ccc(C(=O)N2CCN(Cc3nc4ccc(C(=O)O)cc4n3C[C@@H]3CCO3)CC2)o1` [Compound 43, 2-[(4-{5-[(2-methylphenoxy)methyl]furan-2-carbonyl}piperazin-1-yl)methyl]-1-{[(2S)-oxetan-2-yl]methyl}-1H-1,3-benzodiazole-6-carboxylic acid], the EC50 was above 500 nM.

Turning to `Cc1ccc(N(C)c2cccc(C(=O)N3CCN(Cc4nc5ccc(C(=O)O)cc5n4C[C@@H]4CCO4)CC3)c2)c(C)c1` [Compound 45, 2-[(4-{3-[(2,4-dimethylphenyl)(methyl)amino]benzoyl}piperazin-1-yl)methyl]-1-{[(2S)-oxetan-2-yl]methyl}-1H-1,3-benzodiazole-6-carboxylic acid], the EC50 is below 50 nM.

In the case of `CCn1cncc1Cn1c(CN2CCN(C(=O)c3ccc(COc4ccc(Cl)cc4Cl)o3)CC2)nc2ccc(C(=O)O)cc21` [Compound 47, 2-[(4-{5-[(2,4-dichlorophenoxy)methyl]furan-2-carbonyl}piperazin-1-yl)methyl]-1-[(1-ethyl-1H-imidazol-5-yl)methyl]-1H-1,3-benzodiazole-6-carboxylic acid], the 50% effective concentration (EC50) is below 50 nM.

For `O=C(O)c1ccc2nc(CN3CCN(C(=O)c4cccc(Cc5ccc(Cl)cc5Cl)c4)CC3)n(C[C@@H]3CCO3)c2c1` [Compound 48, 2-[(4-{3-[(2,4-dichlorophenyl)methyl]benzoyl}piperazin-1-yl)methyl]-1-{[(2S)-oxetan-2-yl]methyl}-1H-1,3-benzodiazole-6-carboxylic acid], the EC50 was in the range of 50 to 500 nM.

As for `CN(C)C(=O)c1ccc(OCc2ccc(C(=O)N3CCN(Cc4nc5ccc(C(=O)O)cc5n4C[C@@H]4CCO4)CC3)o2)c(F)c1` [Compound 49, 2-{[4-(5-{[4-(dimethylcarbamoyl)-2-fluorophenoxy]methyl}furan-2-carbonyl)piperazin-1-yl]methyl}-1-{[(2S)-oxetan-2-yl]methyl}-1H-1,3-benzodiazole-6-carboxylic acid], the EC50 is above 500 nM.
